Source: patent publication US7750011B2, “Diazabicyclic aryl derivatives and their medical use” (Neurosearch A/S, priority 2005, dated 2010)
Where a name gives a salt, the structure may show the parent alone.

Target: T1, α7-subtype of nicotinic receptors (Rattus norvegicus, UniProt Q05941)
T1 construct: Cerebral cortices from male Wistar rats (150-250 g) are homogenised; from tissue; host or cells: rat cerebral cortex membrane homogenate (male Wistar rats)
Assay: In vitro inhibition of 3H-α-bungarotoxine binding in rat brain
Settings: rat cerebral cortex homogenate; 3H-α-bungarotoxine 2 nM; 2 hours at 37° C

T1 sequence (Q05941 23-502): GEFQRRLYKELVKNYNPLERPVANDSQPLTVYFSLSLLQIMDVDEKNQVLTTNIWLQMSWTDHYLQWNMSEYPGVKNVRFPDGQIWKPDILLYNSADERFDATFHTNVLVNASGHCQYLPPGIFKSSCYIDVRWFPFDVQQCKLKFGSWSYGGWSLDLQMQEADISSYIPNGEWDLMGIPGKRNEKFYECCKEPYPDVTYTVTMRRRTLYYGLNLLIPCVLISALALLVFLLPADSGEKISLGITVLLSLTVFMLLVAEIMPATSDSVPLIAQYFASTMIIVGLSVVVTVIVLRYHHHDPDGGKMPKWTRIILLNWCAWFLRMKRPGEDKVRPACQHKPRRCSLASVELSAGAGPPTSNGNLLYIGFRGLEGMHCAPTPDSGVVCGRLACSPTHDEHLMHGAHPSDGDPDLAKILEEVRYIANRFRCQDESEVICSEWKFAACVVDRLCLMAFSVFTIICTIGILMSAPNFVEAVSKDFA

`CN1C[C@@H]2C[C@H]1CN2c1ccc(C#Cc2ccccc2)nn1` [Compound 2, 2-Methyl-5-(6-phenylethynyl-pyridazin-3-yl)-(1S,4S)-2,5-diaza-bicyclo[2.2.1]heptane fumaric acid salt] was tested, and the IC50 was 2000 nM.
